# Read-outs that look alike come from different tables or passages of the source.
# Key:
# [1] = system: K. pneumoniae NVT1001 and its ΔompK35/36 and/or ΔramR mutants; assay: Etest MIC, OmpK35/36 loss and AcrAB-TolC overexpression (ΔramR) strains (Table 6); format: cell-based, Klebsiella pneumoniae; settings: Klebsiella pneumoniae
# How it was run: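 Ceftazidime and cefotaxime were tested by CLSI broth microdilution on the blaOXA-48 pACYC177 transformant of NVT1001, using CLSI 2017 breakpoints. Parent, porin-deleted (ΔompK35/36) and ΔramR strains were tested by Etest, with values between two-fold dilutions rounded up.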
# [2] = system: K. pneumoniae NVT1001 ΔramRΔompK35/36 mutant and its revertants; assay: Etest MIC, ΔramRΔompK35/36 mutant and its revertants (Table 7); format: cell-based; settings: Klebsiella pneumoniae
# [3] = ΔramRΔ35/36, ΔramRΔompK35/36 mutant
# [4] = ΔramRΔompK35/36::ompK35/36 revertant
# [5] = ΔramRΔompK35/36::ompK35 revertant
# [6] = ΔramRΔompK35/36::ompK36 revertant
# [7] = ΔramRΔompK35/36::ramR revertant
# [8] = ΔramRΔompK35/36::ramR::ompK35/36 revertant
# [9] = ΔramRΔompK35/36::ramR::ompK35 revertant
# [10] = ΔramRΔompK35/36::ramR::ompK36 revertant
SMILES,"MIC ([1]; WT, NVT1001, read-out: MIC)","MIC ([1]; Δ35, ΔompK35 mutant)","MIC ([1]; Δ35/36, ΔompK35/36 mutant)","MIC ([1]; Δ36, ΔompK36 mutant)",MIC ([1]; ΔramR mutant),"MIC ([1]; ΔramRΔ35, ΔramRΔompK35 mutant)","MIC [1, 3]","MIC ([1]; ΔramRΔ36, ΔramRΔompK36 mutant)","MIC [2, 4]","MIC [2, 5]","MIC [2, 6]","MIC [2, 7]","MIC [2, 8]","MIC [2, 9]","MIC [2, 10]",MIC ([2]; ΔramRΔompK35/36 mutant)
"C[C@H]1COc2c(N3CCN(C)CC3)c(F)cc3c(=O)c(C(=O)O)cn1c23 [Levofloxacin, levofloxacin]",0.06 µg/mL,0.125 µg/mL,0.125 µg/mL,0.125 µg/mL,1 µg/mL,1 µg/mL,1 µg/mL,1 µg/mL,0.5 µg/mL,1 µg/mL,0.5 µg/mL,0.125 µg/mL,0.06 µg/mL,0.06 µg/mL,0.125 µg/mL,1 µg/mL
"CCn1cc(C(=O)O)c(=O)c2cc(F)c(N3CCNCC3)cc21 [Norfloxacin, norfloxacin]",0.25 µg/mL,0.25 µg/mL,0.5 µg/mL,0.25 µg/mL,2 µg/mL,2 µg/mL,2 µg/mL,2 µg/mL,2 µg/mL,2 µg/mL,2 µg/mL,0.5 µg/mL,0.25 µg/mL,0.25 µg/mL,0.25 µg/mL,2 µg/mL
"COc1c(N2C[C@@H]3CCCN[C@@H]3C2)c(F)cc2c(=O)c(C(=O)O)cn(C3CC3)c12 [Moxifloxacin, moxifloxacin]",0.125 µg/mL,0.125 µg/mL,0.125 µg/mL,0.06 µg/mL,1 µg/mL,1 µg/mL,1 µg/mL,1 µg/mL,0.5 µg/mL,1 µg/mL,0.5 µg/mL,0.06 µg/mL,0.125 µg/mL,0.06 µg/mL,0.125 µg/mL,1 µg/mL

# Source: US10760110B2, “Antibiotic testing and screening system” (priority 2017, dated 2020)
